Laboratory results: ChEMBL document CHEMBL1148999, “Antimalarial agents, 2. Artesunate, an inhibitor of cytochrome oxidase activity in Plasmodium berghei” (J Nat Prod, 1986)
Active and inactive are the calls of the source. The rule behind the calls is not given here.

Legend:
Plasmodium berghei [1] = assay: Inhibition of Plasmodium berghei trophozoite cytochrome oxidase after 30 min by osmium black staining
Plasmodium berghei [2] = assay: Inhibition of Plasmodium berghei trophozoite cytochrome oxidase at 1 mM after 30 min by osmium black staining
Plasmodium berghei [3] = assay: Inhibition of Plasmodium berghei trophozoite cytochrome oxidase at 100 nM after 30 min by osmium black staining
Plasmodium berghei [4] = assay: Inhibition of cytochrome oxidase in intraerythrocytic trophozoite of Plasmodium berghei infected CF1 mice (Mus musculus) at 100 mg/kg intravenous dose; format: functional, organism-based; design: dose 100 mg/kg

C[C@H]1[C@H](OC(=O)CCC(=O)O)O[C@@H]2O[C@@]3(C)CC[C@H]4[C@H](C)CC[C@@H]1[C@@]24OO3
Activity (Plasmodium berghei [1]): Dose-dependent effect
Activity (Plasmodium berghei [2]): Active
Activity (Plasmodium berghei [3]): inactive
Activity (Plasmodium berghei [4]): Active
